In this experiment the test system is non-muscle invasive bladder cancer (CBNMI). Briefly: Adjuvancy of intravesical MRB-CFI-1 and systemic cisplatin in NMIBC rats, histopathology. Format: in vivo, Fischer 344 female rats. The source says: The protocol for use of animals in research was approved by the Ethics Committee on the Use of Animals (CEUA)—UNICAMP (protocol number: 4324-1).
[1] abbreviates: MNU rats, MRB-CFI-1 intravesical 20 mg/kg 6 weeks and/or cisplatin i.p. […] weekly 4 weeks, n = 7.

As to `N.N.[Cl][Pt][Cl]` [cisplatin], the “decrease in the progression of urothelial neoplastic lesions, percentage of animals” value (MNU rats, same treatments) is given as 14.28%. In addition, under setting [1], the “Carcinoma in situ (Ptis), percentage of animals” value stood at 14.28%; the “Papillary carcinoma (pTa), percentage of animals” value was 57.14%; the “Papilliferous hyperplasia, percentage of animals” value came to 14.28%; the “Urothelial carcinoma with lamina propria invasion (pT1), percentage of animals” value was 14.28%. For the setting “same treatments, of n = 7”, the “Carcinoma in situ (Ptis), number of animals” value came to 1; the “Papillary carcinoma (pTa), number of animals” value was 4; the “Papilliferous hyperplasia, number of animals” value turned out to be 1; the “Urothelial carcinoma with lamina propria invasion (pT1), number of animals” value amounted to 1.

For the origin of these results see patent publication US11623869B2 (UNIVERSIDADE ESTADUAL DE CAMPINAS—UNICAMP, priority 2017, dated 2023).
